The results in this text go back to patent publication US20170327556A1, “CARTILAGE-BINDING FUSION PROTEINS” (Merrimack Pharmaceuticals, Inc., priority 2013, published 2017).

Test [1] has as its system AKT phosphorylation in bovine chondrocytes. Kind of test: Stimulation of AKT phosphorylation in primary bovine chondrocytes (pAKT ELISA). Type of test: cell-based. Conditions: 10 min stimulation, doses in M (Table 4), 6x-Histidine-tagged fusion proteins. The protocol:
Fusion proteins comprising IGF-1 and a cartilage matrix binding domain were prepared as described above. Six fusion proteins were prepared: GF-Fus1 (6x-Histidine-tagged), GF-Fus2(6x-Histidine-tagged), GF-Fus3 (6x-Histidine-tagged), GF-Fus4 (6x-Histidine-tagged), GF-Fus5 (6x-Histidine-tagged), and GF-Fus6 (6x-Histidine-tagged). In order to ensure that the growth factor portion of the fusion protein was active in the fusion proteins, each construct was tested for its ability to stimulate AKT phosphorylation. Wild-type IGF-1 (wtIGF) was included as a control. Bovine chondrocytes were stimulated with a range of doses of each fusion protein, and pAKT levels were measured by ELISA.
Bovine chondrocytes are isolated from the femoral chondyles of 2-4 week old bovine calves. Knee joints are mounted by removing all tissue surrounding the femur, removing the femoral head with a bone saw or hack saw, and clamping in a tissue vice. Joints are aseptically opened, removing the patella, tibia and fibula. Using a scalpel, cartilage is sliced off the femoral chondyles and placed in sterile PBS (pH=7.4) containing penicillin-streptomycin (1×, Gibco 15140-122). PBS is subsequently removed and pronase solution (50 mL per 5 g of tissue), consisting of high glucose DMEM (Life Technologies Cat#11965-092), fetal bovine serum (10% v/v, Life Technologies Cat#16140071), HEPES (100 mM, Gibco 15630-080), non-essential amino acids (1×, Sigma M7145), penicillin-streptomycin (1×, Gibco 15140-122), proline (400 μM, Sigma P5607-256), Protease Type XIV (2 mg/mL, Sigma Cat# P5147), is added for 1 hour with stirring. After rinsing twice with sterile PBS (pH=7.4), collagenase solution (50 mL per 5 g of tissue), consisting of high glucose DMEM (Life Technologies Cat#11965-092), fetal bovine serum (10% v/v, Life Technologies Cat#16140071), HEPES (100 mM, Gibco 15630-080), NEAA(1×, Sigma M7145), Penicillin-Streptomycin (1×, Gibco 15140-122), 0.25 mg/mL Collagenase P (Roche Cat#11 249 002 001), is added for 18 hours with stirring. Cell are strained, washed, and resuspended in chondrocyte culture medium (low glucose DMEM (1× Gibco 11885-084), Penicillin-Streptomycin (1×, Gibco 15140-122), non-essential amino acids (1×, Sigma M7145), and HEPES (100 mM, Gibco 15630-080)) with fetal bovine serum (10% v/v, Life Technologies Cat#16140071).
For ligand stimulation, chondrocytes were seeded at 200,000 cells/well into 96-well tissue culture plates with 100 μL of chondrocyte culture medium with fetal bovine serum (10% v/v, Life Technologies Cat#16140071). […]
In general terms: ELISA stands for enzyme-linked immunosorbent assay.

In the next test the target is T1, collagen type II (Homo sapiens, UniProt P02458).
T1 construct: purchased Chondrex Products, Redmond, Wash
T1 sequence (P02458 182-1241 limits assumed): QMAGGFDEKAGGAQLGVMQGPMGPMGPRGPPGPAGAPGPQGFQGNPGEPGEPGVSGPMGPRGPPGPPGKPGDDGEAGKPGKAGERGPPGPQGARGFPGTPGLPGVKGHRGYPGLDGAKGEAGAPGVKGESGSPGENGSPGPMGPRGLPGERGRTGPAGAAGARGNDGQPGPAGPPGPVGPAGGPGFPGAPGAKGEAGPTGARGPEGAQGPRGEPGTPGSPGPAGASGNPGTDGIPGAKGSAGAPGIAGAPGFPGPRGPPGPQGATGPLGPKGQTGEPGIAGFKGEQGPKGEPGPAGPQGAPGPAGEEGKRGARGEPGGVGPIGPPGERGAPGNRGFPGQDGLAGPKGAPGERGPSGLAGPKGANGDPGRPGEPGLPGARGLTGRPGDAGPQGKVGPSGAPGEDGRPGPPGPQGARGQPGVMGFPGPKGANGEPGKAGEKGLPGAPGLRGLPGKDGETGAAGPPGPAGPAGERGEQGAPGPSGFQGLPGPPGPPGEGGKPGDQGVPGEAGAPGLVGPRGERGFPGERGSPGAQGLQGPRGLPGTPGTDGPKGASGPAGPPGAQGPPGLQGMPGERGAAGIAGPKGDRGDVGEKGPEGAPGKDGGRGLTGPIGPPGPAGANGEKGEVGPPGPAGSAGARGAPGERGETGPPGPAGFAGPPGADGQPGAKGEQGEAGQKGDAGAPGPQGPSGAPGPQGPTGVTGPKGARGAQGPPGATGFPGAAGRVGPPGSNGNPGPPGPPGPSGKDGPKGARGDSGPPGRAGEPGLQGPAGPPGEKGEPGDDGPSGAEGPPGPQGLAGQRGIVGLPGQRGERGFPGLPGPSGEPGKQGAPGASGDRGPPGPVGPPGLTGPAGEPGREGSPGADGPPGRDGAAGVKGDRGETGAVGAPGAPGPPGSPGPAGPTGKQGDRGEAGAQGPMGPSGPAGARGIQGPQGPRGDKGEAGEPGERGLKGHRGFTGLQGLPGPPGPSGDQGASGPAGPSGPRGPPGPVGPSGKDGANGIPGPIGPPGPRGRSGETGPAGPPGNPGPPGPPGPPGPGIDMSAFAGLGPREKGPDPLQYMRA
Kind of test: ELISA binding of fusion proteins to collagen type II coated plates. Particulars: 6x-Histidine-tagged proteins, FIG. 2. The protocol: Specificity of proteins to collagen type II may be determined by measuring the ability of the protein to bind the collagen coated on an ELISA plate. Reacti-Bind® 96 well plates are coated overnight at 4° C. with 100 μl of collagen type II (Chondrex Products, Redmond, Wash.) with 1× supplied buffer. Plates are washed with PBS, 0.05% Tween-20 (PBST) and blocked for 1 hour at room temperature with 100 μl of Protein-Free Blocking Buffer (Pierce, Thermo Scientific). Plates are then washed with PBST and tapped dry. 50 μL, of protein in a dilution series is added to the wells and incubated for 1 hour at room temperature. The protein dilution series starts from 100 μM and includes ten additional three-fold dilutions in PBS and one blank (PBS). After plates are washed in PBS, 50 μL, of anti-human IGF-1 (Abcam) at 1:250 in PBST is added and plates are incubated for 1 hour rotating at room temperature. The plates are then washed with PBST and 100 μL, of 1:1000 anti-Rabbit-HRP (Cell Signaling Technology) in PBST for 1 hour at room temperature. […] The absorbance is measured at 450 nm and the resulting data is analyzed using GraphPad Prism®.
The binding of two anticipated type II collagen binding fusion proteins, GF-Fus5 (6x-Histidine-tagged) and GF-Fus6 (6x-Histidine-tagged) was measured as described above.

Turning to “GF-Fus3: C-terminal fusion IGF-1(LR3)-PRELP heparin binding domain”, in test [1], the “logEC50 Mean” value is −9.175.
As for “GF-Fus5: IGF-1(LR3) fused to CNA35 CB domain”, the “binding to collagen type II” value with collagen type II is given as “bound to collagen type II”.
For the substance “wtIGF: Wild-type IGF-1 (R&D systems 291-G1), control [reference compound]”, in test [1], the “logEC50 Mean” value was −9.071.
In the case of “GF-Fus1: IGF-1 variant polypeptide Long [R^3]-IGF-1, no fused binding domain; used 6x-Histidine-tagged as control [reference compound]”, in test [1], the “logEC50 Mean” value is given as −9.227.
For “GF-Fus6: IGF-1(LR3) fused to CNA344 CB domain”, the “binding to collagen type II” value with collagen type II is listed as “binding more strongly”.
